Data: patent US8735364B2, “Antisense modulation of apolipoprotein B expression” (Genzyme Corporation, priority 2001, dated 2014)
Oligonucleotides are written 5' to 3', each unit as a sugar letter and its base; * is a phosphorothioate linkage, no mark a phosphodiester; rarer units and linkages stand in square brackets, end groups in braces. Plain capitals give the bases only. e = 2'-O-(2-methoxyethyl) (MOE); [5mC] = 5-methylcytosine; d = 2'-deoxy (DNA)

Tests used:
[1] = Liver enzyme levels in ApoE knockout mice; assay type: in vivo, mouse
Source text: Female ApoE knockout mice ranged in age from 5 to 7 weeks and were placed on a normal diet for 2 weeks before study initiation. ApoE knockout mice were then fed ad libitum a 60% fat diet, with 0.15% added cholesterol to induce dyslipidemia and obesity. […]
At study termination and forty eight hours after the final injections, animals were sacrificed and evaluated for target mRNA levels in liver by RT-PCR methods verified by Northern Blot analysis, glucose levels, cholesterol and lipid levels by HPLC separation methods and triglyceride and liver enzyme levels (perfomed by LabCorp Preclinical Services; San Diego, Calif.). Data are normalized to saline controls.

[2] = Serum AST and ALT levels, high fat fed mice, 6 week study; assay type: in vivo, mouse; settings: daily oral dose of 20 mg/kg
Procedure: (§1) Male C57BL/6 mice (n=8) receiving a high fat diet (60% kcal fat) were evaluated over the course of 6 weeks for the effects of treatment with the antisense oligonucleotide, ISIS 147764. Control animals received saline treatment (50 mg/kg). A subset of animals received a daily oral dose (20 mg/kg) atorvastatin calcium (Lipitor®, Pfizer Inc.). All mice, except atorvastatin-treated animals, were dosed intraperitoneally every three days (twice a week), after fasting overnight, with 5, 25, 50 mg/kg ISIS 147764 (SEQ ID No: 109) or saline (50 mg/kg) for six weeks. Serum cholesterol and lipoproteins were analyzed at 0, 2 and 6 week interim timepoints. At study termination, animals were sacrificed 48 hours after the final injections and evaluated for levels of target mRNA levels in liver, cholesterol, lipoprotein, triglyceride, liver enzyme (AST and ALT) and serum glucose levels as well as body, liver, spleen and fat pad weights.
Male C57BL/6 mice (n=8) receiving a high fat diet (60% kcal fat) were evaluated over the course of 6 weeks for the effects of ISIS 147764 on liver enzyme (AST and ALT) levels. Control animals received saline treatment (50 mg/kg). Mice were dosed intraperitoneally every three days (twice a week), after fasting overnight, with 5, 25, 50 mg/kg ISIS 147764 (SEQ ID No: 109) or saline (50 mg/kg) for six weeks.
Values in the table are expressed as IU/L. Increased levels of the liver enzymes ALT and AST indicate toxicity and liver damage.

[3] = Body, spleen, liver and fat pad weight, high fat fed mice, 6 week study; assay type: in vivo, mouse; settings: 20 mg/kg daily, compared to saline-treated controls
Procedure: as §1
Male C57BL/6 mice (n=8) receiving a high fat diet (60% kcal fat) were evaluated over the course of 6 weeks for the effects of ISIS 147764 on body, spleen, liver and fat pad weight. Control animals received saline treatment (50 mg/kg). Mice were dosed intraperitoneally every three days (twice a week), after fasting overnight, with 5, 25, 50 mg/kg ISIS 147764 (SEQ ID No: 109) or saline (50 mg/kg) for six weeks.
At study termination, animals were sacrificed 48 hours after the final injections and body, spleen, liver and fat pad weights were measured. Values are expressed as percent change in body weight or ogan weight compared to the saline-treated control animals. Data from mice treated with atorvastatin at a daily dose of 20 mg/kg are also shown in the table Negative values indicated a decrease in weight.

[4] = tested on: human apolipoprotein B mRNA; experiment: Inhibition of human apolipoprotein B mRNA levels in HepG2 cells, quantitative real-time PCR; assay type: cell-based; parameters: %INHIB of human apolipoprotein B mRNA levels: concentration or dose not given beside the values; settings: for %INHIB of human apolipoprotein B mRNA levels: averages from two experiments
Procedure: The human hepatoblastoma cell line HepG2 was obtained from the American Type Culture Collection (Manassas, Va.). HepG2 cells were routinely cultured in Eagle's MEM supplemented with 10% fetal calf serum, non-essential amino acids, and 1 mM sodium pyruvate (Gibco/Life Technologies, Gaithersburg, Md.). Cells were routinely passaged by trypsinization and dilution when they reached 90% confluence. Cells were seeded into 96-well plates (Falcon-Primaria #3872) at a density of 7000 cells/well for use in RT-PCR analysis.
When cells reached 80% confluency, they were treated with oligonucleotide. For cells grown in 96-well plates, wells were washed once with 200 μL OPTI-MEM™-1 reduced-serum medium (Gibco BRL) and then treated with 130 μL of OPTI-MEM™-1 containing 3.75 μg/mL LIPOFECTIN™ (Gibco BRL) and the desired concentration of oligonucleotide. After 4-7 hours of treatment, the medium was replaced with fresh medium. Cells were harvested 16-24 hours after oligonucleotide treatment.
Quantitation of apolipoprotein B mRNA levels was determined by real-time quantitative PCR using the ABI PRISM™ 7700 Sequence Detection System (PE-Applied Biosystems, Foster City, Calif.) according to manufacturer's instructions. This is a closed-tube, non-gel-based, fluorescence detection system which allows high-throughput quantitation of polymerase chain reaction (PCR) products in real-time. As opposed to standard PCR, in which amplification products are quantitated after the PCR is completed, products in real-time quantitative PCR are quantitated as they accumulate. This is accomplished by including in the PCR reaction an oligonucleotide probe that anneals specifically between the forward and reverse PCR primers, and contains two fluorescent dyes. A reporter dye (e.g., JOE, FAM, or VIC, obtained from either Operon Technologies Inc., Alameda, Calif. or PE-Applied Biosystems, Foster City, Calif.) is attached to the 5′ end of the probe and a quencher dye (e.g., TAMRA, obtained from either Operon Technologies Inc., Alameda, Calif. or PE-Applied Biosystems, Foster City, Calif.) is attached to the 3′ end of the probe. When the probe and dyes are intact, reporter dye emission is quenched by the proximity of the 3′ quencher dye. During amplification, annealing of the probe to the target sequence creates a substrate that can be cleaved by the 5′-exonuclease activity of Taq polymerase. […] With each cycle, additional reporter dye molecules are cleaved from their respective probes, and the fluorescence intensity is monitored at regular intervals by laser optics built into the ABI PRISM™ 7700 Sequence Detection System. In each assay, a series of parallel reactions containing serial dilutions of mRNA from untreated control samples generates a standard curve that is used to quantitate the percent inhibition after antisense oligonucleotide treatment of test samples.
PCR reagents were obtained from PE-Applied Biosystems, Foster City, Calif. RT-PCR reactions were carried out by adding 25 μL PCR cocktail (1× TAQMAN™ buffer A, 5.5 mM MgCl2, 300 μM each of DATP, dCTP and dGTP, 600 μM of dUTP, 100 nM each of forward primer, reverse primer, and probe, 20 Units RNAse inhibitor, 1.25 Units AMPLITAQ GOLD™, and 12.5 Units MuLV reverse transcriptase) to 96 well plates containing 25 μL total RNA solution. The RT reaction was carried out by incubation for 30 minutes at 48° C. Following a 10 minute incubation at 95° C. to activate the AMPLITAQ GOLD™, 40 cycles of a two-step PCR protocol were carried out: 95° C. for 15 seconds (denaturation) followed by 60° C. for 1.5 minutes (annealing/extension).
Gene target quantities obtained by real time RT-PCR are normalized using either the expression level of GAPDH, a gene whose expression is constant, or by quantifying total RNA using RiboGreen™ (Molecular Probes, Inc. Eugene, Oreg.). GAPDH expression is quantified by real time RT-PCR, by being run simultaneously with the target, multiplexing, or separately. […]

Compound | %INHIB of human apolipoprotein B mRNA levels [4] | further results
CC(C)c1c(C(=O)Nc2ccccc2)c(-c2ccccc2)c(-c2ccc(F)cc2)n1CC[C@@H](O)C[C@@H](O)CC(=O)O [atorvastatin, atorvastatin calcium, reference compound] | – | Liver Enzyme Levels ALT ([1]; 20 mg/kg daily, Control 56): 76 IU/L; Liver Enzyme Levels AST ([1]; Control 55): 75 IU/L; AST levels ([2]; printed in the ALT paragraph): 40 IU/L; AST levels ([2]; saline control 65 IU/L): 85 IU/L; Fat pad weight Percent Change [3]: 7%; Liver weight Percent Change [3]: 15%; Spleen weight Percent Change [3]: 10%; Total Body Wt. Percent Change [3]: 1%
147806 (antisense eA*eT*eG*eT*eG*dG*dT*dA*dA*d[5mC]*dG*dA*dG*d[5mC]*d[5mC]*e[5mC]*eG*eA*eA*eG) [compound 147806] | 100% | Percent Inhibition of human apolipoprotein B mRNA levels ([4]; 50 nM): 23%; Percent Inhibition of human apolipoprotein B mRNA levels ([4]; 150 nM): 45%; Percent Inhibition of human apolipoprotein B mRNA levels ([4]; 250 nM): 28%
147829 (antisense eT*eA*eT*eA*eT*d[5mC]*d[5mC]*d[5mC]*dA*dG*dG*dT*dT*dT*d[5mC]*e[5mC]*e[5mC]*e[5mC]*eG*eG) [compound 147829] | 64% | –
147809 (antisense e[5mC]*e[5mC]*e[5mC]*eA*eG*dT*dG*dA*dT*dA*dG*d[5mC]*dT*d[5mC]*dT*eG*eT*eG*eA*eG) [compound 147809] | 60% | –
147781 (antisense eA*e[5mC]*e[5mC]*eG*eA*dG*dA*dA*dG*dG*dG*d[5mC]*dA*d[5mC]*dT*e[5mC]*eA*eG*e[5mC]*e[5mC]) [compound 147781] | 35% | –
147818 (antisense eA*eG*eT*eG*eA*dT*dG*dG*dA*dA*dG*d[5mC]*dT*dG*d[5mC]*eG*eA*eT*eA*e[5mC]) [compound 147818] | 30% | –
147796 (antisense eG*e[5mC]*eA*eG*e[5mC]*d[5mC]*dA*dG*dT*d[5mC]*dG*d[5mC]*dT*dT*dA*eT*e[5mC]*eT*e[5mC]*e[5mC]) [compound 147796] | 8% | –
147785 (antisense eG*e[5mC]*e[5mC]*e[5mC]*eG*d[5mC]*d[5mC]*dA*dG*d[5mC]*dA*dG*d[5mC]*dA*dG*e[5mC]*eA*eG*e[5mC]*eA) [compound 147785] | 29% | –
147826 (antisense eT*e[5mC]*eA*eG*eG*dG*dT*dG*dA*dG*d[5mC]*d[5mC]*d[5mC]*dT*dG*eT*eG*eT*eG*eT) [compound 147826] | 80% | –
147784 (antisense e[5mC]*eA*eG*e[5mC]*eG*d[5mC]*d[5mC]*dA*dG*d[5mC]*dA*dG*d[5mC]*dG*d[5mC]*e[5mC]*eA*eG*e[5mC]*eA) [compound 147784] | 70% | –
147831 (antisense e[5mC]*eT*eG*e[5mC]*e[5mC]*dT*dA*d[5mC]*dT*dG*d[5mC]*dA*dA*dG*dG*e[5mC]*eT*eG*eG*e[5mC]) [compound 147831] | 0% | –
147792 (antisense eG*eG*eA*e[5mC]*eA*d[5mC]*d[5mC]*dT*d[5mC]*dA*dA*dT*d[5mC]*dA*dG*e[5mC]*eT*eG*eT*eG) [compound 147792] | 26% | –
147827 (antisense e[5mC]*eT*eA*eA*eT*dG*dG*d[5mC]*d[5mC]*d[5mC]*d[5mC]*dT*dT*dG*dA*eT*eA*eA*eA*e[5mC]) [compound 147827] | 13% | –
147780 (antisense e[5mC]*e[5mC]*eG*e[5mC]*eA*dG*dG*dT*d[5mC]*d[5mC]*d[5mC]*dG*dG*dT*dG*eG*eG*eA*eA*eT) [compound 147780] | 40% | –
147823 (antisense eT*eG*e[5mC]*e[5mC]*e[5mC]*dT*dG*d[5mC]*dA*dG*d[5mC]*dT*dT*d[5mC]*dA*e[5mC]*eT*eG*eA*eA) [compound 147823] | 19% | –
147788 (antisense eT*eT*eT*e[5mC]*eT*dG*dT*dT*dG*d[5mC]*d[5mC]*dA*d[5mC]*dA*dT*eT*eG*e[5mC]*e[5mC]*e[5mC]) [compound 147788] | 95% | Percent Inhibition of human apolipoprotein B mRNA levels ([4]; 50 nM): 54%; Percent Inhibition of human apolipoprotein B mRNA levels ([4]; 150 nM): 63%; Percent Inhibition of human apolipoprotein B mRNA levels ([4]; 250 nM): 72%
147814 (antisense e[5mC]*e[5mC]*e[5mC]*eA*eA*dT*dA*dA*dG*dA*dT*dT*dT*dA*dT*eA*eA*e[5mC]*eA*eA) [compound 147814] | 34% | –
147820 (antisense eG*eA*eA*e[5mC]*eA*d[5mC]*dA*dT*dA*dG*d[5mC]*d[5mC]*dG*dA*dA*eT*eG*e[5mC]*e[5mC]*eG) [compound 147820] | 100% | Percent Inhibition of human apolipoprotein B mRNA levels ([4]; 50 nM): 10%; Percent Inhibition of human apolipoprotein B mRNA levels ([4]; 150 nM): 0%; Percent Inhibition of human apolipoprotein B mRNA levels ([4]; 250 nM): 73%
147833 (antisense eA*eT*eG*eA*eT*dA*d[5mC]*dA*d[5mC]*dA*dA*dT*dA*dA*dA*eG*eA*e[5mC]*eT*e[5mC]) [compound 147833] | 25% | –
